In patent US20150224164A1, “TREATMENT OF AUTISM SPECTRUM DISORDERS USING GLYCYL-L-2-METHYLPROLYL-L-GLUMATIC ACID” (Neuren Pharmaceuticals Limited, priority 2013, published 2015):
Where a SMILES comes first, the peptide text is derived from it.

Legend:
fmr1 knockout mice [1] = assay: Contextual fear conditioning, fmr1 knockout mice; type: in vivo, mouse; details: fmr1 KO; 100 mg/kg i.p. 28 days
Description: (§1) G-2-MePE was administered at the dose of 100 mg/kg i.p. in 0.1 ml saline, once daily for 28 days. Vehicle-treated animals were injected with 0.1 ml saline daily for 28 days. Thereafter, drug or vehicle treatments were stopped and animals were tested on successive days until all tests were completed. Finally, the animals were sacrificed for determining expression of pAkt and pERK
Contextual fear conditioning is the most basic of the conditioning (learning) procedures. It involves placing the animal in a novel environment (dark chamber), providing an aversive stimulus (a 1-sec electric shock at 0.2 mA to the paw), and then removing it. […] Freezing is a species-specific response to fear and is defined as absence of movement except for respiration.
The clinical manifestation of Fragile X Syndrome is mental retardation in which learning and memory may be profoundly impaired. We tested G-2-MePE and vehicle treated fmr1 KO and wild-type animals in a fear-conditioning task in which we measured freezing behavior in response to context. […] Before the test, we observed the mice for their reactions to a 1-sec foot shock at 0.2 mA, and we noted vocalizations, jumping behavior, and excessive running in both genotypes as evidence that they had detected the stimulus.

[2] = tested on: cortical neurons injured with okadaic acid; assay: In vitro neuroprotection, cortical cultures injured with okadaic acid (MTT); type: cell-based, rat; details: 10 μM; okadaic acid injury; 24 hours incubation; MTT-assay
Description: A dam was sacrificed by CO2-treatment, and then was prepared for caesarean section. After surgery, the embryos were removed from their amniotic sacs and decapitated. The heads were placed on ice in DMEM/F12 medium for striatum and PBS+0.65% D(+)-glucose for cortex.
The two cortical hemispheres were carefully removed by spatula from the whole brain with the ventral side facing upside into a PBS+0.65% D(+)-glucose containing petri dish. Forceps were put into the rostral part (near B. olfactorius) of the cortex in order to fix the tissue and two lateral-sagittal oriented cuts were made to remove the […] and entorhinal cortices. […]
The cells were triturated once with a glass Pasteur pipette in 1 ml of Neurobasal/B27 medium and subsequently twice by using a 1 ml insulin syringe with a 22 gauge needle. […] Cells were counted and adjusted to 50,000 cells per 60 μl. […]
To cause toxic injury to neurons, we exposed neurons to 1:100 parts of okadaic acid at concentrations of 30 nM or 100 nM and 0.5 mM 3-nitropropionic acid (for cerebellar microexplants only). […] The survival rate was determined by a colorimetric end-point MTT-assay at 595 nm in a multi-well plate reader. For the cerebellar microexplants four windows (field of 0.65 mm^2) with highest cell density were chosen and cells displaying neurite outgrowth were counted.

fmr1 knockout mice [3] = assay: Open field test, fmr1 knockout mice; type: in vivo, mouse; details: 100 mg/kg i.p. 28 days
Description: 1. fmr1 KO+Vehicle (saline) 2. Wt+Vehicle (saline) 3. fmr1 KO+G-2-MePE (100 mg/kg in saline) 4. Wt+G-2-MePE (100 mg/kg in saline).
as §1
The open field is a grey PVC enclosed arena 50×30 cm divided into 10 cm squares. Mice were brought to the experimental room 5-20 min before testing. A mouse was placed into a corner square facing the corner and observed for 3 min. The number of squares entered (whole body) and rears (both front paws off the ground, but not as part of grooming) were counted. The latency to the first rearing (rear) was also noted. The movement of the mouse around the field was recorded with a video tracking device for 300 s (vNT4.0, Viewpoint). The latency for the mouse to enter the brightest, central part of the field total time spent in this central region, and total activity (in terms of path length in centimeters), were recorded in each trial, the initial exposure, 10 min after the initial exposure and 24 h after the initial exposure.
During exposure to the open field chamber mice habituated to the environment and thus explored less, decreasing the amount movement shown over time. Movement and rearing were recorded during the 3 exposures. Failures to reduce locomotion or rearing at 10 minutes and 24 hours indicated deficits in short and long term memory, respectively.

[4] = tested on: layer 5 pyramidal neurons of motor cortex, MeCP2 knockout; assay: Golgi staining, cortical spine density (Example 10); type: in vivo, mouse; details: P28 mice; knockout with treatment
Description: Samples (<1 cm) from P28 mice are fixed in 10% formalin and 3% potassium bichromate for 24 hours. Tissue is then transferred into 2% silver nitrate for 2 days in the dark at room temperature. Sections from these samples are then cut at 50 μm thickness into distilled water. Sections corresponding to motor cortex are mounted onto slides, air dried for 10 minutes, and then dehydrated through sequential rinses of 95% alcohol, 100% alcohol, and xylene, and then sealed with a coverslip. Images re acquired at 10× (whole cell) and 100× (spine imaging) using a Zeiss Pascal 5 Exciter confocal microscope. We use Golgi staining to label neurons sparsely and distinctly, and applied high-resolution confocal imaging to measure dendritic spine density and morphology in the labelled cells, restricting analysis to layer 5 pyramidal neurons in sections of motor cortex from critical period mice (P28). While low-magnification imaging clearly delineates the extent of the dendrites of the pyramidal cells we use higher magnifications to count synaptic contacts and determine the morphological class of each spine. We classify spines as either large and bulbous (“mushroom”, M), short and stubby (“stubby”, S), short and thin (“thin”, T) or filopodia (F).

gastrointestinal cells = details: cited from earlier work

C[C@@]1(C(=O)N[C@@H](CCC(=O)O)C(=O)O)CCCN1C(=O)CN [Example G-2-MePE, Glycyl-L-2-methylprolyl-L-glutamic acid] (HELM PEPTIDE1{G.[C[C@@]1(C(=O)[*:2])CCCN1[*:1]].E}$$$$V2.0)
freezing behavior, contextual fear conditioning (fmr1 knockout mice [1]): normalizes the deficit
neuroprotection [2]: 59%
rearing activity (fmr1 knockout mice [3]; fmr1 KO mice): significantly reduced rearing activity
movement in the open field (fmr1 knockout mice [3]; fmr1 knockout mice, 2nd and 3rd trials): significantly reduce movement
rearing activity (fmr1 knockout mice [3]; wild-type mice): no effect
density of spines per unit branch [4]: largely ameliorated
degradation by gastrointestinal cells (gastrointestinal cells): not degraded
uptake by gastrointestinal cells (gastrointestinal cells): taken up
